Source: patent US7893069B2, “Substituted imidazo[2,1-b]thiazole compounds and uses thereof” (Gruenenthal GmbH, priority 2006, dated 2011)
pIC50: −log10 of the molar value. Where a name gives a salt, the structure may show the parent alone.

What follows are compounds tested against T1, mGluR5 receptor (pig) (Sus scrofa, UniProt I3LUI7) (assay: [3H]-MPEP binding assay, pig brain homogenate). Conditions: displacement of 5 nM [3H]-MPEP, 450 μg protein from pig brain homogenate, 60 min, room temperature; read-out: IC50 [3H]-MPEP bond mGluR5 receptor (pig).
T1 construct: 450 μg protein from brain homogenate is incubated with 5 nM; from tissue; host or cells: pig brain halves without medulla, cerebellum and pons; homogenate, differential centrifugation
Method: Substituted imidazo[2,1-b]thiazole compounds corresponding to the foregoing formula I are likewise particularly preferred, which, after 60 minutes of incubation in 450 μg protein from pig brain homogenate at a temperature between 20° C. and 25° C. in a concentration of less than 2500 nM, preferably less than 1000 nM, particularly preferably less than 700 nM, very particularly preferably less than 100 nM, even more preferably less than 70 nM, bring about a 50-percent displacement of [^3H]-2-methyl-6-(3-methoxyphenyl)-ethynylpyridine which is present in a concentration of 5 nM. The determination of the displacement of [^3H]-2-methyl-6-(3-methoxyphenyl)-ethynyl-pyridine is performed as described hereinafter in the section Pharmacological Methods, I. Method for determining the inhibition of [^3H]-MPEP-bonding in the mGluR5 receptor bonding assay.
1. Method for Determining the Affinity to the mGluR5 Receptor
Pig brain homogenate is produced by homogenization (Polytron PT 3000, Kinematica AG, 10,000 rpm for 90 seconds) of pig brain halves without medulla, cerebellum and pons in buffer pH 8.0 (30 mM Hepes, Sigma, order no. H3375+1 tablet complete to 100 ml, Roche Diagnostics, order no. 1836145) in ratio 1:20 (brain weight/volume) and differential centrifugation at 900×g and 40,000×g. In each case, 450 μg protein from brain homogenate is incubated with 5 nM ^3-[H]-MPEP (Tocris, order no. R1212) (MPEP=2-methyl-6-(3-methoxyphenyl)-ethynylpyridine) in 250 μl incubation batches in 96 well microtitration plates and the compounds to be tested (10 μM in the test) in buffer (as above) at room temperature for 60 min.
Thereafter, the batches are filtered with the help of a Brandel Cell Harvester (Brandel, TYP Robotic 9600) on unifilter plates with glass fibre filter mats (Perkin Elmer, order no. 6005177) and subsequently washed with buffer (as above) 3 times with in each case 250 μl per sample. The filter plates are subsequently dried for 60 min at 55° C. 30 μL Ultima Gold™ scintillator is subsequently added per well (Packard BioScience, order no. 6013159) and the samples are measured after 3 hours on the β-counter (Mikrobeta, Perkin Elmer). The unspecific bond is determined by addition of 10 μM MPEP (Tocris, order no. 1212).

T1 sequence (I3LUI7 19-1212): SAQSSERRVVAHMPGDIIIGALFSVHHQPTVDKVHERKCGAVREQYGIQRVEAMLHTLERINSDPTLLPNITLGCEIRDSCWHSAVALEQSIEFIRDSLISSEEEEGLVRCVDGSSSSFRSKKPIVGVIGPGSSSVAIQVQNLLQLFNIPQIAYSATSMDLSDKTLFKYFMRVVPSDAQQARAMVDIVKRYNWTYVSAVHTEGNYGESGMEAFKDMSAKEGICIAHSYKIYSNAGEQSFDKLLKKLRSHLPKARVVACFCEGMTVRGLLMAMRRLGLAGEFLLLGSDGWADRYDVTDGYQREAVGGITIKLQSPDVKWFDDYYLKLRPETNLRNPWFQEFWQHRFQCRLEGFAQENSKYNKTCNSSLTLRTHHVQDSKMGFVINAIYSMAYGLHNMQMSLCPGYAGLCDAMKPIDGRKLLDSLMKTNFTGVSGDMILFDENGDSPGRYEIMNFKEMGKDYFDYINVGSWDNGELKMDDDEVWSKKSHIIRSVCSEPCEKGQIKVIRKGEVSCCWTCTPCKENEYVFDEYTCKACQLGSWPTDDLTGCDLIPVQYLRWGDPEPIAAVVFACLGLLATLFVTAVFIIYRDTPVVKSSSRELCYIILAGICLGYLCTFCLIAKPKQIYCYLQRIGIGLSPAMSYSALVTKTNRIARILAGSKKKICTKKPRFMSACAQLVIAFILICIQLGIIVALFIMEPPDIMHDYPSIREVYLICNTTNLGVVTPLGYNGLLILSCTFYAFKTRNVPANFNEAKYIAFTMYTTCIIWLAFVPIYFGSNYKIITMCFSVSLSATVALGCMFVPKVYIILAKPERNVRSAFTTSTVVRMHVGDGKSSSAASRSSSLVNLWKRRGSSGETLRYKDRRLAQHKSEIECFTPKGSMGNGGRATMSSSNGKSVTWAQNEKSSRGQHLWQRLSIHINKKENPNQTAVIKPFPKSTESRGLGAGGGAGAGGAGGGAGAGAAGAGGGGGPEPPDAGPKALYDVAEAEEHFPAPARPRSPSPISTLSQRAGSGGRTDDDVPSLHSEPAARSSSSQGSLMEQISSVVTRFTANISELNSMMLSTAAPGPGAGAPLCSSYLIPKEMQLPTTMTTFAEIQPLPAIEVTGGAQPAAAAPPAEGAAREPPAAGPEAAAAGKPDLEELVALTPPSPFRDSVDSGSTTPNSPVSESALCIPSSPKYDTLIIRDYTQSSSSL

pIC50	Structure (SMILES)
7.74	CC(C)(C)Nc1c(-c2ccc(C#Cc3ccnc(F)c3)s2)nc2sccn12 [Example 17, N-tert-butyl-6-(5-((2-fluoropyridine-4-yl)ethynyl)thiophene-2-yl)imidazo[2,1-b]thiazole-5-amine]
7.59	CC(C)(C)Nc1c(-c2ccc(C#Cc3cccc(C#N)c3)s2)nc2sccn12 [Example 21, 3-((5-(5-(tert-butylamino)imidazo[2,1-b]thiazole-6-yl)thiophene-2-yl)ethynyl)benzonitrile]
6.64	Cc1cccnc1C#Cc1ccc(-c2nc3sccn3c2NC(C)(C)C)s1 [Example 23, N-tert-butyl-6-(5-((3-methylpyridine-2-yl)ethynyl)thiophene-2-yl)imidazo[2,1-b]thiazole-5-amine]
7.35	CC(C)(C)Nc1c(-c2ccc(C#Cc3cccs3)s2)nc2sccn12 [Example 18, N-tert-butyl-6-(5-(thiophene-2-ylethynyl)thiophene-2-yl)imidazo[2,1-b]thiazole-5-amine]
6.77	CC(C)(C)Nc1c(-c2ccc(C#Cc3cccc(O)c3)s2)nc2sccn12 [Example 20, 3-((5-(5-(tert-butylamino)imidazo[2,1-b]thiazole-6-yl)thiophene-2-yl)ethynyl)phenol]
7.62	CC(C)(C)Nc1c(-c2ccc(C#Cc3nccs3)s2)nc2sccn12 [Example 19, N-tert-butyl-6-(5-(thiazole-2-ylethynyl)thiophene-2-yl)imidazo[2,1-b]thiazole-5-amine]

The next lines start with the compound.

Structure (SMILES)	pIC50
Cc1sc2nc(-c3ccc(C#Cc4ccccn4)s3)c(NC(C)(C)C)n2c1C [Example 5, N-tert-butyl-2,3-dimethyl-6-(5-(pyridine-2-ylethinyl)thiophene-2-yl)-imidazo[2,1-b]thiazole-5-amine hydrochloride]	7.77
Cc1cn2c(NC(C)(C)C)c(-c3ccc(C#Cc4ccccn4)cc3)nc2s1 [Example 11, N-tert-butyl-2-methyl-6-(4-(pyridine-2-ylethynyl)phenyl)imidazo[2,1-b]thiazole-5-amine]	7.70
CC(C)(C)Nc1c(-c2ccc(C#Cc3ccccn3)s2)nc2sccn12 [Example 2, N-tert-butyl-6-(5-(pyridine-2-ylethynyl)thiophene-2-yl)imidazo[2,1-b]thiazole-5-amine]	8.20
CC(C)(C)CC(C)(C)Nc1c(-c2ccc(C#Cc3ccccc3)s2)nc2sccn12 [Example 1, 6-(5-(phenylethynyl)thiophene-2-yl)-N-(2,4,4-trimethylpentane-2-yl)imidazo[2,1-b]thiazole-5-amine]	5.66
CC(C)(C)Nc1c(-c2ccc(C#Cc3ccccn3)s2)nc2sc(Cl)cn12 [Example 6, N-tert-butyl-2-chloro-6-(5-(pyridine-2-ylethinyl)thiophene-2-yl)-imidazo[2,1-b]thiazole-5-amine hydrochloride]	8.00
CC(C)(C)Nc1c(-c2ccc(C#Cc3ncccc3F)s2)nc2sccn12 [Example 16, N-tert-butyl-6-(5-((3-fluoropyridine-2-yl)ethynyl)thiophene-2-yl)imidazo[2,1-b]thiazole-5-amine]	7.89
Cc1csc2nc(-c3ccc(C#Cc4ccccn4)s3)c(NC(C)(C)C)n12 [Example 3, N-tert-butyl-3-methyl-6-(5-(pyridine-2-ylethynyl)thiophene-2-yl)imidazo[2,1-b]thiazole-5-amine hydrochloride]	7.92
CC(C)(C)CC(C)(C)Nc1c(-c2ccc(C#Cc3ccccn3)s2)nc2sccn12 [Example 10]	7.00
Nc1c(-c2ccc(C#Cc3ccccn3)s2)nc2sccn12 [Example 14, 6-(5-(pyridine-2-ylethynyl)thiophene-2-yl)imidazo[2,1-b]thiazole-5-amine]	6.85
COC(=O)c1cn2c(NC(C)(C)C)c(-c3ccc(C#Cc4ccccn4)s3)nc2s1 [Example 8, 5-(tert-butylamino)-6-(5-(pyridine-2-ylethinyl)thiophene-2-yl)-imidazo[2,1-b]thiazole-2-carbonic acid methylester hydrochloride]	6.80
CC(C)(C)Nc1c(-c2ccc(C#Cc3ncccn3)s2)nc2sccn12 [Example 15, N-tert-butyl-6-(5-(pyrimidine-2-ylethynyl)thiophene-2-yl)imidazo[2,1-b]thiazole-5-amine]	8.00
CC(C)(C)Nc1c(-c2ccc(C#Cc3ccccn3)o2)nc2sccn12 [Example 12, N-tert-butyl-6-(5-(pyridine-2-ylethynyl)furan-2-yl)imidazo[2,1-b]thiazole-5-amine]	7.06

Same assay, conditions: test compound 10 μM; inhibition of [3H]-MPEP binding, pig brain homogenate

inhibition at 10 µM [%]	Structure (SMILES)
48	Cc1csc2nc(-c3ccc(C#Cc4ccccc4)s3)c(NC(C)(C)C)n12 [Example 13, N-tert-butyl-3-methyl-6-(5-(phenylethynyl)thiophene-2-yl)imidazo[2,1-b]thiazole-5-amine]
82	CCNc1c(-c2ccc(C#Cc3ccccc3)nc2)nc2sccn12 [Example 22, N-ethyl-6-(6-(phenylethynyl)pyridine-3-yl)imidazo[2,1-b]thiazole-5-amine]

The compounds below were run on rat (assay: Formalin test in rats (phase 2, chronic pain component)). Conditions: iv, administered 30 min before formalin, observed 21 to 27 min after formalin injection.
Type: in vivo
Method: 2a. Formalin Test in Rats The formalin test (Dubuisson, D. and Dennis, S. G., 1977, Pain, 4, 161-174) represents a model for acute and chronic pain. A biphasic nociceptive reaction, which is recorded by observation of three clearly differentiable behavioural patterns, is induced by a single formalin injection into the dorsal side of a rear paw in freely mobile test animals. The reaction has two phases: Phase 1=Immediate reaction (duration up to 10 min; paw shaking, licking), Phase 2=Late reaction (after a rest phase; likewise, paw shaking, licking; duration up to 60 min). The 1st phase reflects a direct stimulation of the peripheral nocisensors with high spinal nociceptive input or glutamate release (acute pain phase); the 2nd phase reflects a spinal and peripheral hypersensitisation (chronic pain phase). In the investigations presented here, the chronic pain component (phase 2) was evaluated. Formalin with a volume of 50 μl and a concentration of 5% is administered subcutaneously into the dorsal side of the right rear paw of each animal. The substances to be tested are administered 30 min before the formalin injection orally (p.o), intravenously (i.v.) or intraperitoneally (i.p.). The specific changes in behavior such as lifting and shaking the paw, shifts in weight of the animal as well as biting and licking reactions are observed and registered in the period of observation from 21 to 27 min after formalin injection. The various forms of behavior are summarized in the so-called pain rate (PR), which, relative to the sub-intervals of 3 min, represents the calculation of an average nociception reaction. […] The group size is 10 animals (n=10). 2b. Formalin Test in Mice

Structure (SMILES)	ED50 [mg/kg]
CC(C)(C)Nc1c(-c2ccc(C#Cc3ccccn3)s2)nc2sccn12 [Example 2, N-tert-butyl-6-(5-(pyridine-2-ylethynyl)thiophene-2-yl)imidazo[2,1-b]thiazole-5-amine]	0.47

Same assay, conditions: p.o., 10 mg/kg, administered 30 min before formalin

Structure (SMILES)	Formalin test (rat) p.o. Reduction in the nociceptive behavior over controls at 10 mg/kg [%]
CC(C)(C)Nc1c(-c2ccc(C#Cc3ccccn3)s2)nc2sccn12 [Example 2, N-tert-butyl-6-(5-(pyridine-2-ylethynyl)thiophene-2-yl)imidazo[2,1-b]thiazole-5-amine]	66
